From patent EP0049968A1, “Pharmaceutical compositions” (priority 1980, dated 1982)

What was measured:
Test in all cases: MIC of compound (i) alone and in the presence of compound (iv), serial dilution in nutrient agar
Format in all cases: cell-based
[1] = test system: E. coli
Method: (§1) Activities of the compound (i) against a number of pathogenic organisms alone, and in the presence of 1.0, 2.5, 5.0 and 10 µg/ml of compound (iv).

[2] = test system: Proteus mirabilis C889
Method: as §1

[3] = test system: Pseudomonas aeruginosa Dalgleish
Method: as §1

[4] = test system: Serratia marcescens US39
Method: as §1

Structure (SMILES): CC1(C)S[C@@H]2[C@H](NC(=O)[C@H](NC(=O)Nc3cnc(Nc4ccc(S(N)(=O)=O)cc4)nc3O)c3ccc(O)cc3)C(=O)N2[C@H]1C(=O)O [compound (i)]
- MIC (μg/ml) for compound (i) ([1]; E. coli JT4 R+, compound (iv) 0 μg/ml (alone)): >100 µg/mL
- MIC (μg/ml) for compound (i) ([1]; E. coli JT4 R+, compound (iv) 1.0 μg/ml): 10 µg/mL
- MIC (μg/ml) for compound (i) ([1]; E. coli JT4 R+, compound (iv) 2.5 μg/ml): 2.5 µg/mL
- MIC (μg/ml) for compound (i) ([1]; E. coli JT4 R+, compound (iv) 5.0 μg/ml): 1.0 µg/mL
- MIC (μg/ml) for compound (i) ([1]; E. coli JT4 R+, compound (iv) 10 μg/ml): 0.5 µg/mL
- MIC (μg/ml) for compound (i) ([1]; E. coli JT39 R+, compound (iv) 0 μg/ml (alone)): >100 µg/mL
- MIC (μg/ml) for compound (i) ([1]; E. coli JT39 R+, compound (iv) 1.0 μg/ml): 1.0 µg/mL
- MIC (μg/ml) for compound (i) ([1]; E. coli JT39 R+, compound (iv) 2.5 μg/ml): 0.5 µg/mL
- MIC (μg/ml) for compound (i) ([1]; E. coli JT39 R+, compound (iv) 5.0 μg/ml): 0.5 µg/mL
- MIC (μg/ml) for compound (i) ([1]; E. coli JT39 R+, compound (iv) 10 μg/ml): 0.1 µg/mL
- MIC (μg/ml) for compound (i) ([2]; compound (iv) 0 μg/ml (alone)): >100 µg/mL
- MIC (μg/ml) for compound (i) ([2]; compound (iv) 1.0 μg/ml): 0.5 µg/mL
- MIC (μg/ml) for compound (i) ([2]; compound (iv) 2.5 μg/ml): 0.2 µg/mL
- MIC (μg/ml) for compound (i) ([2]; compound (iv) 5.0 μg/ml): 0.1 µg/mL
- MIC (μg/ml) for compound (i) ([2]; compound (iv) 10 μg/ml): 0.1 µg/mL
- MIC (μg/ml) for compound (i) ([3]; inoculum 10^-2, compound (iv) 0 μg/ml (alone)): 50 µg/mL
- MIC (μg/ml) for compound (i) ([3]; inoculum 10^-2, compound (iv) 1.0 μg/ml): 2.5 µg/mL
- MIC (μg/ml) for compound (i) ([3]; inoculum 10^-2, compound (iv) 2.5 μg/ml): 1.0 µg/mL
- MIC (μg/ml) for compound (i) ([3]; inoculum 10^-2, compound (iv) 5.0 μg/ml): 1.0 µg/mL
- MIC (μg/ml) for compound (i) ([3]; inoculum 10^-2, compound (iv) 10 μg/ml): 2.5 µg/mL
- MIC (μg/ml) for compound (i) ([3]; inoculum Undiluted, compound (iv) 0 μg/ml (alone)): >100 µg/mL
- MIC (μg/ml) for compound (i) ([3]; inoculum Undiluted, compound (iv) 1.0 μg/ml): 10 µg/mL
- MIC (μg/ml) for compound (i) ([3]; inoculum Undiluted, compound (iv) 2.5 μg/ml): 5.0 µg/mL
- MIC (μg/ml) for compound (i) ([3]; inoculum Undiluted, compound (iv) 5.0 μg/ml): 5.0 µg/mL
- MIC (μg/ml) for compound (i) ([3]; inoculum Undiluted, compound (iv) 10 μg/ml): 10 µg/mL
- MIC (μg/ml) for compound (i) ([4]; compound (iv) 0 μg/ml (alone)): 50 µg/mL
- MIC (μg/ml) for compound (i) ([4]; compound (iv) 1.0 μg/ml): 0.5 µg/mL
- MIC (μg/ml) for compound (i) ([4]; compound (iv) 2.5 μg/ml): 1.0 µg/mL
- MIC (μg/ml) for compound (i) ([4]; compound (iv) 5.0 μg/ml): 2.5 µg/mL
- MIC (μg/ml) for compound (i) ([4]; compound (iv) 10 μg/ml): 5.0 µg/mL
